Measurements published in US20260146035A1, “FUSED BICYCLIC COMPOUNDS AND THEIR USE AS MER AND AXL INHIBITORS” (DONG-A ST CO., LTD., priority 2022, published 2026).

Tests used:
[1] = molecular target: T1, human AXL (473-end) (Homo sapiens, UniProt P30530); experiment: HTRF kinase activity biochemical assay, AXL; conditions: 10 μM ATP, 30 minutes pre-incubation
T1 construct: human AXL (473-end); purchased SignalChem, Canada
T1 sequence (P30530 473-894 limits assumed): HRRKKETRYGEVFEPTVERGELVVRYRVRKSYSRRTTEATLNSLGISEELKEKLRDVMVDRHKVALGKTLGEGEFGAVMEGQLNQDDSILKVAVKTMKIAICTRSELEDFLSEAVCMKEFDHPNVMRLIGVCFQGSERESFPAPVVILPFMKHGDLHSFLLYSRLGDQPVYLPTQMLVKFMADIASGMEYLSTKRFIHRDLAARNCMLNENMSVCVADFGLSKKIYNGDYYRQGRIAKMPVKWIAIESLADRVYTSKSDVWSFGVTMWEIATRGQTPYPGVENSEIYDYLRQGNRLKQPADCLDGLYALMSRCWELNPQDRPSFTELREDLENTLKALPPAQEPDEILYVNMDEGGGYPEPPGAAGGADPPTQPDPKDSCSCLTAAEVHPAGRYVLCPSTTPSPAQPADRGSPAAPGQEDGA

[2] = molecular target: T2, human MER (528-end) (Homo sapiens, UniProt Q12866); experiment: HTRF kinase activity biochemical assay, MER; conditions: 10 μM ATP, 30 minutes pre-incubation; read-out: HTRF MERTK IC50
T2 construct: human MER (528-end); purchased Camnabio, Japan
T2 sequence (Q12866 528-999 limits assumed): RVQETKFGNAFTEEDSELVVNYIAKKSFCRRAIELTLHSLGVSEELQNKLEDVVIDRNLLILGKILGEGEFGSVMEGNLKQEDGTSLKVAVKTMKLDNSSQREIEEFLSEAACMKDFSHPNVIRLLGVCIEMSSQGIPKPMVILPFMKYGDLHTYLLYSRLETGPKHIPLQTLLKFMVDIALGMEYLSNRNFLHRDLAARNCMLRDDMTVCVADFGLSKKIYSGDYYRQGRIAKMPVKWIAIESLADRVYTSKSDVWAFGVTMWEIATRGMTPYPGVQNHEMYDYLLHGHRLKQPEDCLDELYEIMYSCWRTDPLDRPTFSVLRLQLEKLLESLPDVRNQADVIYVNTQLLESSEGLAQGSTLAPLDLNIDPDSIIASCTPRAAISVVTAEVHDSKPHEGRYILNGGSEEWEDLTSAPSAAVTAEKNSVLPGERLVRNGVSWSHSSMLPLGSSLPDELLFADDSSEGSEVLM

[3] = system: phospho-MerTK in BaF3.MerTK tumors; experiment: In vivo Ba/F3 pMER ALISA assay; conditions: 50 milligrams per kilogram, orally; single dose, tumors harvested 4 hours after; phospho-MerTK normalized to total MerTK
Experimental: BaF3.MerTK tumor cells were mixed with 50% Matrigel (BD, Franklin Lakes, NJ). […] Tumors were allocated into dose groups at 10 to 11 days post tumor cell inoculation, when they were roughly 250-400 mm^3 in size. Test compounds were formulated in 10% ethanol, 30% PEG-400, and 60% Phosal-50PG, for oral dosing at 0.2 mL per dose per mouse. Plasma and tumors were harvested 4 hours after a single dose. Ba/F3 tumors were harvested into 2 mL Precellys CKmix tubes, snap frozen in liquid nitrogen, and stored at −80° C. overnight. […] Precellys tubes were then centrifuged at >18,000 g for 20 minutes at 4° C. and the supernatant was collected on ice. The lysate was then centrifuged again at >18,000 g for 10 minutes at 4° C. to remove any residual debris. […] Plates were then frozen at −80° C. overnight.

[4] = molecular target: T3, human TYRO3 (455-end) (Homo sapiens, UniProt Q06418); experiment: HTRF kinase activity biochemical assay, TYRO3; conditions: 10 μM ATP, 30 minutes pre-incubation; read-out: HTRF TYRO IC50
T3 construct: TYRO3 (455-end); purchased SignalChem, Canada
T3 sequence (Q06418 455-890 limits assumed): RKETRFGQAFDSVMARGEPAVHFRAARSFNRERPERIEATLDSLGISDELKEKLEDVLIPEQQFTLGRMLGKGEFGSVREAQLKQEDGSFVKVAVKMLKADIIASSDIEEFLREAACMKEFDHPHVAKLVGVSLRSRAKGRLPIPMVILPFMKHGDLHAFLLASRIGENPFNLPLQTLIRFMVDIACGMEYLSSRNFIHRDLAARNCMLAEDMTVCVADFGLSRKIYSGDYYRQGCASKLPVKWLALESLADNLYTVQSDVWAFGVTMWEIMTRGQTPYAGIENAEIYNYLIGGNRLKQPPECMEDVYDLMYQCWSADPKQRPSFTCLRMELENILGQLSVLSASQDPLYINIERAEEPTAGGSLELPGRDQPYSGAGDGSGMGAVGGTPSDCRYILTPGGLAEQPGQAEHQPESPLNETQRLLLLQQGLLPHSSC

- IC50 [1]: < 10 nM
- IC50 [2]: < 10 nM
- IC50 [4]: 10 to 100 nM
SMILES: Cn1cc(-c2cnc(N)c(C(=O)N[C@H]3CCC[C@@H]3OCc3ccc(-c4ccc5c(c4)CCC[C@@H]5N4CCN(C[C@H](O)CO)CC4)cc3)c2)cn1 [Example 171, 2-amino-N-[(1S,2S)-2-({4-[(5S)-5-{4-[(2S)-2,3-dihydroxypropyl]piperazin-1-yl}-5,6,7,8-tetrahydronaphthalen-2-yl]phenyl}methoxy)cyclopentyl]-5-(1-methyl-1H-pyrazol-4-yl)pyridine-3-carboxamide]
- % inhibition [3]: 94%
